According to patent US8975289B2, “Benzyl aralkyl ether compounds, method for preparing same, intermediate compounds, use of said compounds, method for treatment and/or prevention, pharmaceutical composition and medicament containing same” (priority 2009, dated 2015):
Converted amounts (≈) assume the structure as drawn. Like-named read-outs stand apart in the source and are kept apart here.

Columns and labels:
Type in all cases: cell-based
Candida glabrata 2001 = experiment: Broth microdilution MIC (M27-A2), yeast, strain XVI; conditions: Nakaseomyces glabratus; strain XVI 2001, 48 hours incubation; read-out: MIC
Experimental: (§1) For the experiments of the present invention (i) yeast strains obtained from clinical isolates and laboratory isolates, and (ii) bacterial strains obtained from laboratory isolates were used, as described in Table 5 as follows. The yeast strains were grown in culture medium Sabouraud Dextrose Agar maintained at a temperature of 35° C. for 48 hours. […] The compounds were dissolved in dimethyl sulfoxide (DMSO) to match the final concentration of the compound equal to or less than 1%. The methodology used to test the sensitivity of the agent was broth microdilution according to the method described in Standard M27-A2 (Reference method for broth dilution tests to determine the sensitivity of yeasts to antifungal therapy-second edition, NCCLS, volume 22 number 15, USA, 2002) as follows. […] Then the suspensions were diluted in culture medium RPMI-1640 (buffered with MOPS 0.165 mol/l) at a final concentration of 50 to 2500 CFU/mL. The diluted suspensions were inoculated in duplicate in a 96-well plate. The procedure was performed in a laminar flow. […] The incubation of fungi with these compounds was carried out for 48 hours at temperature of 30 to 35° C. […] We have agreed in this experiment that the turbid medium is the result of microbial growth and the presence of deposit and a clear medium represents the absence of microbial growth. The minimum inhibitory concentration (MIC) was defined as the lowest tested drug concentration that prevents any degree of […] growth.

[1] = system: Trichophyton mentagrophytes 40004; experiment: Broth microdilution MIC (M38-A), filamentous fungi, strain X
Experimental: (§2) For the experiments of the present invention, the dermatophyte-type fungi strains that were obtained from clinical isolates and laboratory isolates, as described in Table 2 as follows, were used:
(§3) The fungal strains were grown on agar potato medium in a sloping chute at a temperature of 30° C. for a period of 7 to 15 days.
(§4) For the experiments, the compound 1-[2-(2,4-dichlorophenyl)-2-{[4-(trifluoromethyl)benzyl]oxy}ethyl]-1H-imidazole (BL-123) in the form of its nitrate salt and miconazole nitrate were used. Both compounds were dissolved in dimethyl sulfoxide (DMSO) to match the final concentration of the compound equal to or less than 1%.
(§5) The methodology used to test the sensitivity of the agent was of broth microdilution according to the method described in Standard M38-A (Reference method for broth dilution tests for determining the sensitivity to antifungal therapy for filamentous fungi; NCCLS, volume 22 No. 16, USA, 2008) as follows.
(§6) The fungus was cultivated pursuant to item 4.1. To the tubes wherein the fungi were grown, 5 mL of saline solution were added in order to extract the fungi from the agar surface. Then, this homogeneous suspension was transferred to a new tube and the colony-forming units (CFUs) were quantified according to counting methods: (i) in Sabouraud dextrose agar plates and (ii) in a Neubauer chamber.
(§7) Then, the fungi strains listed in Table 2 were inoculated in duplicate in a 96-well plate. There were used inocula of from 2 to 6×10^3 CFU/mL of fungi, per well, in a total volume of 0.2 mL of RPMI-1640 (containing L-glutamine and without bicarbonate) buffered at pH 7.0 with MOPS (acid 3-(N-morpholine) 15 propanesulfonic). The procedure was performed in a laminar flow.
(§8) The compounds to be tested were added in a serial dilution, in duplicate, in final concentrations of 16 μg/mL; 8 μg/mL; 4 μg/mL; 2 μg/mL; 1 μg/mL; 0.5 μg/mL; 0.25 μg/mL; 0.125 μg/mL; 0.0625 μg/mL; or 0.03125 μg/mL in culture medium present in each well.
(§9) The incubation of fungi with these compounds was performed by 4, 5, 6 and 7 days at temperatures from 30 to 35° C.
(§10) The fungi quantification was carried out with the growth of fungi in each well being compared to the growth occurred in the negative control by means of a mirror reading. The negative control is represented by fungi grown in culture medium in the absence of the tested compounds. The methodology of this comparison is the numerical rating to which the microdilution well was submitted. […]

[2] = system: Microsporum gypseum 40051; experiment: Broth microdilution MIC (M38-A), filamentous fungi, strain XII; conditions: Nannizzia gypsea
Experimental: as §2, §3, §4, §5, §6, §7, §8, §9, §10

Candida albicans 10231 = experiment: Broth microdilution MIC (M27-A2), yeast, strain XIV; conditions: Candida albicans; strain XIV 10231, 48 hours incubation; read-out: MIC
Experimental: as §1

[3] = system: Trichophyton verrucosum 381; experiment: Broth microdilution MIC (M38-A), filamentous fungi, strain IV
Experimental: as §2, §3, §4, §5, §6, §7, §8, §9, §10

[4] = system: Candida parapsilosis 22019; experiment: Broth microdilution MIC (M27-A2), yeast, strain XV; conditions: strain XV 22019, 48 hours incubation; read-out: MIC
Experimental: as §1

[5] = system: filamentous fungi strains of Table 2 (n = 13); experiment: MIC50, MIC90 and variation of MICs over the 13 strains of Table 2; conditions: for MIC50 / MIC90: n = 13 strains; for MIC50: read-out: MIC50 (minimum inhibitory concentration to inhibit 50% of strains), Average MIC; for MIC90: read-out: MIC90 (minimum inhibitory concentration to inhibit 90% of strains), Average MIC
Experimental: as §2, §3, §4, §5, §6, §7, §8, §9
The fungi quantification was carried out with the growth of fungi in each well being compared to the growth occurred in the negative control by means of a mirror reading. The negative control is represented by fungi grown in culture medium in the absence of the tested compounds. The methodology of this comparison is the numerical rating to which the microdilution well was submitted. In this methodology, value 4 corresponds to no reduction of growth, value 3 corresponds to a slight reduction in growth or approximately 75% of the growth of the negative control, value 2 corresponds to a standout reduction in growth or approximately 50% of growth of negative control; value 1 corresponds to a slight growth or approximately 25% of the growth of the negative control, and value 0 corresponds to optically clear or absence of growth.
In this experiment, the minimum inhibitory concentration (MIC) is considered as the lowest concentration of the agent capable of inhibiting at least 80% of the growth of colony-forming units (CFUs).

[6] = 96 h, strain X 40004, reading Day 4, average of four experiments
[7] = 168 h, strain X 40004, reading Day 7, average of four experiments
[8] = 96 h, strain XII 40051, reading Day 4, average of four experiments
[9] = 168 h, strain XII 40051, reading Day 7, average of four experiments
[10] = 96 h, strain IV 381, reading Day 4, average of four experiments
[11] = 168 h, strain IV 381, reading Day 7, average of four experiments

With `FC(F)(F)c1ccc(COC(Cn2ccnc2)c2ccc(Cl)cc2Cl)cc1` (stereo not drawn) [BL-123, 1-[2-(2,4-dichlorophenyl)-2-{[4-(trifluoromethyl)benzyl]oxy}ethyl]-1H-imidazole] as the molecule, how does the MIC (Candida glabrata 2001) read?
The MIC was 0.125 µg/mL (≈ 0.301 µM).

And the MIC [1, 6]?
The MIC was 0.25 µg/mL (≈ 0.602 µM).

What about the MIC [1, 7] of the same molecule?
Its MIC is 0.5 µg/mL (≈ 1.2 µM).

What about the MIC [2, 8] of the same molecule?
The MIC was 0.03 µg/mL (≈ 0.0722 µM).

What about the MIC [2, 9] of the same molecule?
Its MIC is 0.03 µg/mL (≈ 0.0722 µM).

What about the MIC (Candida albicans 10231) of the same molecule?
Its MIC is 8 µg/mL (≈ 19.3 µM).

And the MIC [3, 10]?
Its MIC is over 16 µg/mL.

What about the MIC [3, 11] of the same molecule?
Its MIC is over 16 µg/mL.

And the MIC [4]?
Its MIC is 4 µg/mL (≈ 9.63 µM).

What about the “Inhibitory effect on growth (in words)” value ([5]; 13 different strains, seven different species) of the same molecule?
Its value is “exerts an inhibitory effect on growth”.

What about the MIC50 ([5]; 96 h, Day 4) of the same molecule?
Its MIC50 is 0.25 µg/mL (≈ 0.602 µM).

What about the MIC90 ([5]; 96 h, Day 4) of the same molecule?
The MIC90 was 4 µg/mL (≈ 9.63 µM).

What about the MIC50 ([5]; 168 h, Day 7) of the same molecule?
The MIC50 was 0.5 µg/mL (≈ 1.2 µM).

And the MIC90 ([5]; 168 h, Day 7)?
Its MIC90 is 8 µg/mL (≈ 19.3 µM).

`Clc1ccc(COC(Cn2ccnc2)c2ccc(Cl)cc2Cl)c(Cl)c1` (stereo not drawn) [Miconazole, miconazole, reference compound] was tested. Which MIC (Candida glabrata 2001) did it give?
Its MIC is 0.125 µg/mL (≈ 0.3 µM).

What about the MIC [1, 6] of the same molecule?
Its MIC is 0.5 µg/mL (≈ 1.2 µM).

What about the MIC [1, 7] of the same molecule?
The MIC was 1 µg/mL (≈ 2.4 µM).

And the MIC [2, 8]?
Its MIC is 0.03 µg/mL (≈ 0.0721 µM).

And the MIC [2, 9]?
Its MIC is 0.06 µg/mL (≈ 0.144 µM).

And the MIC (Candida albicans 10231)?
Its MIC is 4 µg/mL (≈ 9.61 µM).

What about the MIC [3, 10] of the same molecule?
The MIC was over 16 µg/mL.

What about the MIC [3, 11] of the same molecule?
Its MIC is over 16 µg/mL.

And the MIC [4]?
The MIC was 2 µg/mL (≈ 4.81 µM).

And the MIC50 ([5]; 96 h, Day 4)?
The MIC50 was 0.5 µg/mL (≈ 1.2 µM).

And the MIC90 ([5]; 96 h, Day 4)?
The MIC90 was over 16 µg/mL.

What about the MIC50 ([5]; 168 h, Day 7) of the same molecule?
Its MIC50 is 1 µg/mL (≈ 2.4 µM).

And the MIC90 ([5]; 168 h, Day 7)?
Its MIC90 is over 16 µg/mL.
